10 molecules from publication PMC5453931, “Cathelicidin-trypsin inhibitor loop conjugate represents a promising antibiotic candidate with protease stability” (Scientific Reports, 2017) can be followed below.

In brackets after ≈: the same amount, converted by molar mass. Like-named read-outs stand apart in the source and are kept apart here. Where a SMILES comes first, the peptide text is derived from it.

Format in all cases: cell-based
Assay [1] concerns S. dysenteria. The settings on record: two-fold broth microdilution, MH broth, 37 °C, 18 h, A595; mean of three independent experiments in duplicate. The procedure: (§1) A two-fold broth microdilution method described in our previous paper was used to determine the antimicrobial activities of parental and hybrid peptides. More than 30 strains including Gram-negative bacteria, Gram-positive bacteria and fungi were used in the current assay, in which the standard strains were stored in our lab and the clinical strains were collected from local hospitals. Briefly, bacteria were incubated in Mueller-Hinton broth (MH broth) at 37 °C to exponential phase and diluted to 10^6 CFU/mL. A serial dilution of peptide sample were prepared in 96-well microtiter plates (50 μL) and mixed with equal volume of microbial inoculums (50 μL). The plate was slowly shaken in the microbial incubator, and measured at A595 after incubation at 37 °C for 18 h. The minimal concentrations at which no microbial growth occurred were recorded as MIC (minimal inhibitory concentration) values. The traditional antibiotic ampicillin was used as positive control. The results are shown in an average of the MICs obtained from three independent experiments.

The subject of assay [2] is P. aeruginosa. The conditions noted are these: 18 h. On the procedure: as §1
The subject of assay [3] is E. coli. The settings on record: 18 h. The procedure: as §1
In assay [4] the test system is P. mirabilis. The settings on record: 18 h. On the procedure: as §1
The subject of assay [5] is B. subtilis. The conditions noted are these: 18 h. The procedure:
as §1

Assay [6] concerns C. albican. The conditions noted are these: 18 h. The procedure: as §1
Assay [7] relates to S. aureus. The settings on record: 18 h. On the procedure:
as §1

The subject of assay [8] is Vibrio Parahaemolyticus. In words: MIC, two-fold broth microdilution. The settings on record: Vibrio parahaemolyticus, 18 h, read-out: MIC Vibrio Parahaemolyticus. On the procedure:
as §1
(Broth dilution looks for growth in wells or tubes with falling amounts of substance.)

Where [9] appears, read: two-fold broth microdilution, MH broth, 37 °C, A595, mean of three independent experiments in duplicate.

Take `CC(C)C[C@H](NC(=O)[C@H](CCCNC(=N)N)NC(=O)[C@H](CCCCN)NC(=O)[C@H](Cc1ccccc1)NC(=O)[C@H](Cc1ccccc1)NC(=O)[C@@H](N)CCCCN)C(=O)N[C@@H](CC(C)C)C(=O)N[C@@H](CCCCN)C(=O)N[C@@H](CO)C(=O)N[C@H](C(=O)N[C@@H](CCCNC(=N)N)C(=O)N[C@@H](CCCNC(=N)N)C(=O)N[C@@H](C)C(N)=O)C(C)C` [Hc7] (H-KFFKRLLKSVRRA-NH2): the “MIC S. dysenteria” value in assay [1] stood at 75 mg/L (≈ 45.5 µM). Besides, the “MIC P. aeruginosa” value in assay [2] worked out at 150 mg/L (≈ 91 µM).

In the case of `CC(C)C[C@H](NC(=O)[C@H](CC(C)C)NC(=O)[C@@H](N)CCCNC(=N)N)C(=O)N[C@@H](CCCCN)C(=O)N[C@@H](CO)C(=O)N[C@H](C(=O)N[C@@H](CCCNC(=N)N)C(=O)N[C@@H](CCCNC(=N)N)C(=O)N[C@@H](C)C(=O)N[C@H](C(=O)N[C@@H](CCCCN)C(=O)N[C@@H](CCCCN)C(=O)N[C@@H](Cc1ccccc1)C(=O)N[C@@H](CCCNC(=N)N)C(=O)N[C@@H](CCCCN)C(N)=O)C(C)C)C(C)C` [Hc11] (H-RLLKSVRRAVKKFRK-NH2), the “MIC S. dysenteria” value in assay [1] was 150 mg/L (≈ 79.6 µM).

Take `CC(C)C[C@H](NC(=O)[C@H](CC(C)C)NC(=O)[C@H](CCCNC(=N)N)NC(=O)[C@H](CCCCN)NC(=O)[C@@H](N)Cc1ccccc1)C(=O)N[C@@H](CCCCN)C(=O)N[C@@H](CO)C(=O)N[C@H](C(=O)N[C@@H](CCCNC(=N)N)C(=O)N[C@@H](CCCNC(=N)N)C(=O)N[C@@H](C)C(=O)N[C@H](C(=O)N[C@@H](CCCCN)C(=O)N[C@@H](CCCCN)C(=O)N[C@@H](Cc1ccccc1)C(N)=O)C(C)C)C(C)C` [Hc15] (H-FKRLLKSVRRAVKKF-NH2): in assay [1], the “MIC S. dysenteria” value is 37.5 mg/L (≈ 20 µM). Besides, in assay [3], the “MIC E. coli” value was 75 mg/L (≈ 40 µM).

Consider `CC(C)C[C@H](NC(=O)[C@H](CCCNC(=N)N)NC(=O)[C@H](CCCCN)NC(=O)[C@H](Cc1ccccc1)NC(=O)[C@H](Cc1ccccc1)NC(=O)[C@@H](N)CCCCN)C(=O)N[C@@H](CC(C)C)C(=O)N[C@@H](CCCCN)C(=O)N[C@@H](CO)C(=O)N[C@H](C(=O)N[C@@H](CCCNC(=N)N)C(=O)N[C@@H](CCCNC(=N)N)C(=O)N[C@@H](C)C(=O)N[C@H](C(N)=O)C(C)C)C(C)C` [Hc6] (H-KFFKRLLKSVRRAV-NH2), for which the “MIC P. mirabilis” value in assay [4] is 37.5 mg/L (≈ 21.5 µM). For the same molecule, the “MIC B. subtilis” value in assay [5] is 150 mg/L (≈ 85.9 µM). For the same molecule, the “MIC S. dysenteria” value in assay [1] stood at 18.75 mg/L (≈ 10.7 µM). In assay [2], the “MIC P. aeruginosa” value came out at 150 mg/L (≈ 85.9 µM). For the same molecule, the “MIC C. albican” value in assay [6] came out at 75 mg/L (≈ 42.9 µM). Moreover, the “MIC S. aureus” value in assay [7] was determined as 75 mg/L (≈ 42.9 µM). Also, the “MIC E. coli” value in assay [3] stood at 75 mg/L (≈ 42.9 µM).

As for `CC(C)C[C@H](NC(=O)[C@H](CCCNC(=N)N)NC(=O)[C@H](CCCCN)NC(=O)[C@H](Cc1ccccc1)NC(=O)[C@H](Cc1ccccc1)NC(=O)[C@@H](N)CCCCN)C(=O)N[C@@H](CC(C)C)C(=O)N[C@@H](CCCCN)C(=O)N[C@@H](CO)C(=O)N[C@H](C(=O)N[C@@H](CCCNC(=N)N)C(=O)N[C@@H](CCCNC(=N)N)C(=O)N[C@@H](C)C(=O)N[C@H](C(=O)N[C@@H](CCCCN)C(=O)N[C@@H](CCCCN)C(N)=O)C(C)C)C(C)C` [Hc4] (H-KFFKRLLKSVRRAVKK-NH2), the “MIC P. mirabilis” value in assay [4] worked out at 75 mg/L (≈ 37.4 µM). Further, the “MIC S. dysenteria” value in assay [1] came out at 4.69 mg/L (≈ 2.34 µM). Moreover, the “MIC P. aeruginosa” value in assay [2] is 150 mg/L (≈ 74.9 µM). In assay [6], the “MIC C. albican” value is 75 mg/L (≈ 37.4 µM). In assay [7], the “MIC S. aureus” value is 75 mg/L (≈ 37.4 µM). The “MIC E. coli” value in assay [3] came to 75 mg/L (≈ 37.4 µM).

For `CC[C@H](C)[C@H](NC(=O)[C@H](CC(C)C)NC(=O)[C@H](CCCNC(=N)N)NC(=O)[C@@H]1CCCN1C(=O)[C@H](CCCCN)NC(=O)[C@H](CCCCN)NC(=O)[C@H](CCCNC(=N)N)NC(=O)[C@H](Cc1ccccc1)NC(=O)[C@H](CCCCN)NC(=O)[C@H](CCCCN)NC(=O)[C@@H](NC(=O)[C@H](C)NC(=O)[C@H](CCCNC(=N)N)NC(=O)[C@H](CCCNC(=N)N)NC(=O)[C@@H](NC(=O)[C@H](CO)NC(=O)[C@H](CCCCN)NC(=O)[C@H](CC(C)C)NC(=O)[C@H](CC(C)C)NC(=O)[C@H](CCCNC(=N)N)NC(=O)[C@H](CCCCN)NC(=O)[C@H](Cc1ccccc1)NC(=O)[C@H](Cc1ccccc1)NC(=O)[C@@H](N)CCCCN)C(C)C)C(C)C)C(=O)NCC(=O)N[C@@H](CC(C)C)C(=O)N[C@@H](CO)C(=O)N[C@H](C(=O)N[C@@H](CC(C)C)C(=O)N[C@@H](CC(C)C)C(=O)O)[C@@H](C)O` [Hc-CATH, reference compound] (H-KFFKRLLKSVRRAVKKFRKKPRLIGLSTLL-OH), the “MIC P. mirabilis” value in assay [4] (setting [9]) turned out to be 4.69 mg/L (≈ 1.29 µM). Moreover, the “MIC B. subtilis” value in assay [5] (setting [9]) was 75 mg/L (≈ 20.7 µM). In addition, the “MIC S. dysenteria” value in assay [1] was 0.59 mg/L (≈ 0.163 µM). Moreover, the “MIC P. aeruginosa” value in assay [2] (setting [9]) stood at 18.75 mg/L (≈ 5.17 µM). Also, in assay [6] (setting [9]), the “MIC C. albican” value was 4.69 mg/L (≈ 1.29 µM). In assay [7] (setting [9]), the “MIC S. aureus” value is 4.69 mg/L (≈ 1.29 µM). The “MIC E. coli” value in assay [3] (setting [9]) stood at 2.34 mg/L (≈ 0.645 µM).

Consider `CC(C)C[C@H](NC(=O)[C@H](CC(C)C)NC(=O)[C@H](CCCNC(=N)N)NC(=O)[C@H](CCCCN)NC(=O)[C@@H](N)Cc1ccccc1)C(=O)N[C@@H](CCCCN)C(=O)N[C@@H](CO)C(=O)N[C@H](C(=O)N[C@@H](CCCNC(=N)N)C(=O)N[C@@H](CCCNC(=N)N)C(=O)N[C@@H](C)C(=O)N[C@H](C(=O)N[C@@H](CCCCN)C(=O)N[C@@H](CCCCN)C(=O)N[C@@H](Cc1ccccc1)C(=O)N[C@@H](CCCNC(=N)N)C(=O)N[C@@H](CCCCN)C(N)=O)C(C)C)C(C)C` [Hc9] (H-FKRLLKSVRRAVKKFRK-NH2), for which the “MIC S. dysenteria” value in assay [1] came to 18.75 mg/L (≈ 8.68 µM). Besides, the “MIC P. aeruginosa” value in assay [2] came to 150 mg/L (≈ 69.5 µM). For the same molecule, in assay [6], the “MIC C. albican” value turned out to be 150 mg/L (≈ 69.5 µM). Moreover, the “MIC S. aureus” value in assay [7] amounted to 9.38 mg/L (≈ 4.34 µM). Besides, the “MIC E. coli” value in assay [3] stood at 150 mg/L (≈ 69.5 µM).

For `CC(C)C[C@H](NC(=O)[C@H](CCCNC(=N)N)NC(=O)[C@H](CCCCN)NC(=O)[C@H](Cc1ccccc1)NC(=O)[C@H](Cc1ccccc1)NC(=O)[C@@H](N)CCCCN)C(=O)N[C@@H](CC(C)C)C(=O)N[C@@H](CCCCN)C(=O)N[C@@H](CO)C(=O)N[C@H](C(=O)N[C@@H](CCCNC(=N)N)C(=O)N[C@@H](CCCNC(=N)N)C(=O)N[C@@H](C)C(=O)N[C@H](C(=O)N[C@@H](CCCCN)C(N)=O)C(C)C)C(C)C` [Hc5] (H-KFFKRLLKSVRRAVK-NH2), the “MIC P. mirabilis” value in assay [4] is 18.75 mg/L (≈ 10 µM). Also, the “MIC B. subtilis” value in assay [5] is 150 mg/L (≈ 80 µM). Moreover, the “MIC S. dysenteria” value in assay [1] worked out at 4.69 mg/L (≈ 2.5 µM). Further, the “MIC P. aeruginosa” value in assay [2] came out at 75 mg/L (≈ 40 µM). Moreover, the “MIC C. albican” value in assay [6] is 37.5 mg/L (≈ 20 µM). Further, the “MIC S. aureus” value in assay [7] was 37.5 mg/L (≈ 20 µM). Also, in assay [3], the “MIC E. coli” value was 37.5 mg/L (≈ 20 µM).

By MIC is commonly meant the smallest concentration in the dilution series that meets the test's criterion for growth inhibition. Consider `C[C@@H](O)[C@H]1C(=O)N2C(C(=O)O)=C(S[C@@H]3CN[C@H](C(=O)N(C)C)C3)[C@H](C)[C@H]12` [Meropenem, reference compound], for which, in assay [8], the MIC was determined as 0.47 mg/L (≈ 1.23 µM).

Consider `CC(C)C[C@H](NC(=O)[C@H](CCCNC(=N)N)NC(=O)[C@H](CCCCN)NC(=O)[C@H](Cc1ccccc1)NC(=O)[C@H](Cc1ccccc1)NC(=O)[C@@H](N)CCCCN)C(=O)N[C@@H](CC(C)C)C(=O)N[C@@H](CCCCN)C(=O)N[C@@H](CO)C(=O)N[C@H](C(=O)N[C@@H](CCCNC(=N)N)C(=O)N[C@@H](CCCNC(=N)N)C(=O)N[C@@H](C)C(=O)N[C@H](C(=O)N[C@@H](CCCCN)C(=O)N[C@@H](CCCCN)C(=O)N[C@@H](Cc1ccccc1)C(=O)N[C@@H](CCCNC(=N)N)C(N)=O)C(C)C)C(C)C` [Hc2] (H-KFFKRLLKSVRRAVKKFR-NH2), for which the “MIC P. mirabilis” value in assay [4] came to 9.38 mg/L (≈ 4.07 µM). In assay [5], the “MIC B. subtilis” value came out at 18.75 mg/L (≈ 8.13 µM). Moreover, the “MIC S. dysenteria” value in assay [1] came out at 2.34 mg/L (≈ 1.01 µM). Further, the “MIC P. aeruginosa” value in assay [2] came to 9.38 mg/L (≈ 4.07 µM). The “MIC C. albican” value in assay [6] was 9.38 mg/L (≈ 4.07 µM). The “MIC S. aureus” value in assay [7] is 9.38 mg/L (≈ 4.07 µM). Moreover, the “MIC E. coli” value in assay [3] was 9.38 mg/L (≈ 4.07 µM).
